Measurements as given in ChEMBL document CHEMBL1144364, “Synthesis and biological activity of the tea catechin metabolites, M4 and M6 and their methoxy-derivatives” (Bioorg Med Chem Lett, 2005).
Values belong to the compound of their own block, whether it stands above or below them. Active and inactive are the calls of the source. No cut-off for these calls is given here.

How the values were obtained:
[1] = Percent inhibition of growth of human esophageal squamous cell carcinoma cells, KYSE150 cells, at 50 uM concentration (Range=20-40%); format: functional; conditions: KYSE-150
HT-29 [2] = assay: Percent inhibition of growth of human colon adenocarcinoma cells, HT-29 cells, at 50 uM concentration; NE=No effect; format: functional, cell-based
INT-407 (Homo sapiens) [3] = assay: Inhibitory concentration against an immortalized human intestinal epithelial cells, INT-407 cells (Range=15-73); conditions: epithelial cell
[4] = Inhibitory concentration against an immortalized rat intestinal epithelial cell line, IEC-6 cell line (Range=15-73); format: functional, cell-based
[5] = Inhibitory concentration against human esophageal squamous cell carcinoma cells, KYSE150 cells (Range=15-73); format: functional
HT-29 [6] = assay: Inhibitory concentration against human colon adenocarcinoma cells, HT-29 cells (Range=15-73); format: functional, cell-based
HCT-116 [7] = assay: Inhibitory concentration against human colon adenocarcinoma cells, HCT116 cells (Range=15-73); format: functional, cell-based
Mus musculus [8] = species on record: Mus musculus; assay: Evaluated to inhibit the release of arachidonic acid and the production of nitric oxide(NO) by lipopolysaccharide (LPS)-stimulated murine macrophages (RAW264.7); format: functional, organism-based
INT-407 (Homo sapiens) [9] = assay: Percent inhibition of growth of an immortalized human intestinal epithelial cells, INT-407 cells
[10] = Percent inhibition of growth of an immortalized rat intestinal epithelial cell line, IEC-6 cell line; format: functional
Mus musculus [11] = species on record: Mus musculus; assay: Evaluated to inhibit the release of arachidonic acid and the production of nitric oxide(NO) by lipopolysaccharide (LPS)-stimulated murine macrophages (RAW264.7); NE=No effect; format: functional, organism-based
HT-29 [12] = assay: Percent inhibition of growth of human colon adenocarcinoma cells, HT-29 cells; format: functional
HCT-116 [13] = assay: Percent inhibition of growth of human colon adenocarcinoma cells, HCT116 cells; format: functional
[14] = Percent inhibition of growth of human esophageal squamous cell carcinoma cells, KYSE150 cells; format: functional

Structure (SMILES): COc1ccc(CC2CCC(=O)O2)cc1O (stereo not drawn)
- inhibition at 50 µM [1]: 40%
- inhibition (HT-29 [2]): inactive

- IC50 [5]: 73 µM
- IC50 (HT-29 [6]): 73 µM
- IC50 (HCT-116 [7]): 73 µM
- IC50 (Mus musculus [8]): 20 µM
Structure (SMILES): O=C1CCC(Cc2cc(O)c(O)c(O)c2)O1 (stereo not drawn)
- IC50 (INT-407 (Homo sapiens) [3]): 73 µM
- IC50 [4]: 73 µM

Structure (SMILES): O=C1CCC(Cc2ccc(O)c(O)c2)O1 (stereo not drawn)
- inhibition at 50 µM [1]: 40%
- inhibition (HT-29 [2]): inactive

Structure (SMILES): COc1ccc(CC2CCC(=O)O2)cc1OC (stereo not drawn)
- inhibition at 50 µM [1]: 40%
- inhibition (HT-29 [2]): inactive

- IC50 (Mus musculus [11]): Not Active
Structure (SMILES): COc1cc(CC2CCC(=O)O2)cc(OC)c1OC (stereo not drawn)
- Inhibition (INT-407 (Homo sapiens) [9]): <20%
- Inhibition [10]: <20%
- Inhibition (HT-29 [12]): <20%
- Inhibition (HCT-116 [13]): <20%
- Inhibition [14]: <20%
